Data published in US20100062012A1, “Negative Genetic Regulation of Cancer Cell Renewal in Synergy with Notch- or Numb-Specific Immunotherapy” (priority 2007, published 2010).
Structures can show the parent of a compound that is named as a salt. Blank lines part the entries; values can stand above or below the molecule they belong to. Peptide text beside a SMILES is read from it. * marks the point of attachment. Cbz = O=C(OCc1ccccc1)*

Experiments:
SKOV-3 [1] = assay: MTT inhibition of proliferation; type: cell-based, human; details: SKOV-3, MTT
Excerpt: (§1) Inhibition of proliferation of tumor cell lines by anticancer drugs.

AsPC-1 [2] = assay: MTT inhibition of proliferation; type: cell-based, human; details: for IC50: AsPC-1, MTT, 72 h
Excerpt: as §1

MCF7 cells = assay: Stimulation of MCF7 / GEMRes MCF7 by DLL4; type: cell-based, human
Experimental: Stimulation of GEMRes MCF7 by DLL4. GEMRes MCF7 were obtained after culture with 0.3 uM GEM for 7 weeks. MCF7 were stimulated for 24 hrs, in medium containing estradiol, fibroblast growth factor in the presence or absence of DLL4, as described (40).

MIA-PaCa-2 [3] = assay: MTT inhibition of proliferation; type: cell-based; details: Homo sapiens; MIA-PaCa-2, MTT, 72 h
Excerpt: as §1

PANC-1 [4] = assay: MTT inhibition of proliferation; type: cell-based; details: Homo sapiens; PANC-1, MTT, 72 h
Excerpt: as §1

MCF7 [5] = assay: MTT inhibition of proliferation; type: cell-based; details: Homo sapiens, 72 h
Excerpt: as §1

MIA-PaCa-2 [6] = assay: Quantitative immunoblot of Notch and Numb proteins with or without GEM; type: cell-based, human
Experimental: (§2) Western blot analysis. Cell lysates of live MIA-PaCa-2, MCF7, and SKOV-3 were prepared as we described (74) after trypsin treatment of cultures. This procedure eliminated dead and dying cells. Cellular proteins were resolved by SDS-PAGE and transferred to a polyvinylidene difluoride membrance. Immuno-blotting and quantification was performed as we described (74). […] Notch signals promote survival and proliferation of normal stem cells. Notch signals are mediated by truncated intracellular domain (NICD), which activate transcription in the nucleus. Numb antagonizes Notch signal by inducing degradation of Notch (60, 13). Mammalian Numb has four splicing isoforms, which are divided into two types (Numb^L and Numb^S) based on the presence or absence of a 49 amino acid insert (5 kDa) in the proline-rich region (PRR) in the C-terminus. It is unclear whether Numb^L or Numb^S is a significant antagonist of Notch. To characterize expression of Notch and Numb proteins we performed quantitative immunoblot analysis of proteins in the lysates of live MIA-PaCa-2 and MCF7 cultured with or without GEM. (FIG. 9).

MCF7 [7] = assay: as above; type: cell-based, human
Experimental: as §2

MIA-PaCa-2 [8] = assay: Flow cytometry of CSt-C markers after culture with drugs; type: cell-based, human; details: starting from 3.0×10^6 Mia-PaCa-2 cells
SKOV-3 [9] = assay: as above; type: cell-based, human
Experimental: (§3) Flow cytometery analysis. All cells were cultured with Gem at 2×IC50 of gemcitabine for 10 days. Cultured cells (2×10^5) were washed in cold-PBS followed by blocking with 20 μL of 1 mg/mL of human IgG (Sigma, Saint Louis, Mo.) for 1 hour on ice. This step was necessary to inhibit non-specific binding of immunoglobulins during staining. Cells were then triple-stained with antibodies against ESA, CD44, and CD24. Analysis was performed with Becton Dickinson FACSCalibur and Cell Quest software (Becton Dickinson). Cells were gated on ESA+ population. Expression of CD24 and CD44 was examined in gated ESA+ cells as we described (26). The population of the ESA+, CD44hi and CD24low/− cells was calculated as percent of total cells and total ESA+ cells. All cell lines were also stained with a MIC-A/B and CD133, and analyzed as above.

MIA-PaCa-2 [10] = assay: as above; type: cell-based, human; details: for % CD44hi CD24- in ESA+ cells / % CD44hi CD24hi in ESA+ cells / % CD44hi CD24low in ESA+ cells / % CSt-like-C / % ESA+: MIA-PaCa-2 after culture with drug
Experimental: as §3

PANC-1 [11] = assay: as above; type: cell-based, human
Experimental: as §3

MCF7 [12] = assay: as above; type: cell-based, human; details: for cells harvested: after culture of 3×10^6 MCF-7 cells
Experimental: as §3

AsPC-1 [13] = assay: as above; type: cell-based, human; details: AsPC-1 after culture with drug
Experimental: as §3

MIA-PaCa-2 [14] = assay: Flow cytometry of NKG2D ligands MIC-A/B in drug-resistant cells; type: cell-based, human; details: MIA PaCa-2, FIG. 7A
Experimental: as §3
To address the hypothesis that drug-resistant cancer cells are more sensitive to cellular immune effectors, we quantified expression of NKG2D ligands, MIC-A and -B (58, 59). ESA^+ MIA-PaCa-2 cells were analyzed for MIC-A/B. MCF7 cells were analyzed with CD44, CD24 and MIC-A/B (FIG. 7B), because almost all MCF7 cells (95% and more) expressed ESA.

breast tumors = details: reference 14; cited from earlier work
Ovarian and PC = assay: CD44+ CD24lo cells after taxol; type: cell-based; details: Ovarian and PC treated
SKOV3.A2 cells = assay: IFN-g production by Numb-1 peptide activated PBMC on SKOV3.A2 cells; type: cell-based, human; details: presentation of Numb-1(87-95) peptide; 24 h and 48 h
Experimental: FIG. 11. (A). SKOV3.A2 cells present the Numb-1 (87-95) peptide to Numb-1 peptide activated PBMC. Substantially higher, by 2-fold IFN-g production by Numb-1-peptide activated PBMC than by Notch peptides activated PBMC. Note that at 48 h the amount of IFN g produced by the two Notch peptide activated cell lines and the non-specifically, IL-2-activated cell lines was low and similar. Only Notch peptide, 2112-2120, can be presented by HL-A2 after Notch digestion by proteasome. (the program paproc.de). (B). Western analysis of Notch and Numb protein expression in SKOV3. […] A part of Numb is phosphorylated. A small part of Numb was phosphorylated at the Ser^283. A large part of Numb was phosphorylated at the Ser^264. […] The closed symbols indicate are 24 h measurements, the open symbols indicate 48 h measurements.

IC50 (SKOV-3 [1]; Homo sapiens, SK-OV-3, 72 h): < 20 nM
IC50 (SKOV-3 [1]; 72 h, hydrochloride): 16 nM
IC50 (AsPC-1 [2]; hydrochloride): 20 nM
IC50 (AsPC-1 [2]; Homo sapiens, ASPC1, 72 h): < 20 nM
IC50 (MIA-PaCa-2 [3]): 300 nM
IC50 (PANC-1 [4]): 350 nM
IC50 (MCF7 [5]): 430 nM
number of cells expressing MICA and MICB in drug-resistant cells (MIA-PaCa-2 [14]): increased
Compound: Nc1ccn([C@@H]2O[C@H](CO)[C@@H](O)C2(F)F)c(=O)n1 [GEM, gemcitabine hydrochloride]
GEMRes MCF7 cells in G1 (resting) phase (MCF7 cells): > 90%
CD44hi CD24hi (% of cells) (MCF7 cells; MCF7): 19.7%
CD44hi CD24hi (cell number) (MCF7 cells; MCF7): 0.26
CD44hi CD24low (% of cells) (MCF7 cells; MCF7): (7.1%)
CD44hi CD24low (cell number) (MCF7 cells; MCF7): 0.09 × 10^6
ratio CD44hi CD24hi to CD44hi CD24low (MCF7 cells; MCF7): 2
Stimulation Index (MCF7 cells; MCF7, harvested/seeded): 0.44
Harvested cells (MCF7 cells; MCF7, seeded 3.0 x 10^6): 1.32 10^6
NECD expression increase, GEMRes vs GEMSens (MIA-PaCa-2 [6]): 18%
NICD level increase, GEMRes vs GEMSens (MIA-PaCa-2 [6]): 35%
NumbL expression increase, GEMRes vs GEMSens (MIA-PaCa-2 [6]): 50%
NumbS decrease, GEMRes vs GEMSens (MIA-PaCa-2 [6]): 18%
NECD expression increase, GEMRes vs GEMSens (MCF7 [7]): 73%
NICD level decrease, GEMRes vs GEMSens (MCF7 [7]): 39%
NumbL expression decrease, GEMRes vs GEMSens (MCF7 [7]): 29%
NumbS decrease, GEMRes vs GEMSens (MCF7 [7]): 18%
cells harvested (MIA-PaCa-2 [8]): 1.3 ×10^6 cells
increase of ESA+ CD44hi CD24low and CD133+ populations in GEMRes population vs entire population (SKOV-3 [9]; SKOV3): 3-5 fold
% CD44hi CD24- in ESA+ cells (SKOV-3 [9]; SKOV-3 after culture with drug): 0.1%
% CD44hi CD24hi in ESA+ cells (SKOV-3 [9]; SKOV-3 after culture with drug): 46.0%
% CD44hi CD24low in ESA+ cells (SKOV-3 [9]; SKOV-3 after culture with drug): 51.5%
% CSt-like-C (SKOV-3 [9]; SKOV-3 after culture with drug): 50.2%
% ESA+ (SKOV-3 [9]; SKOV-3 after culture with drug): 97.5%
change of CSt-C (CSt-like-C) population (MIA-PaCa-2 [10]; MIA-PaCa-2): increased
% CD44hi CD24- in ESA+ cells (MIA-PaCa-2 [10]): 1.1%
% CD44hi CD24hi in ESA+ cells (MIA-PaCa-2 [10]): 12.2%
% CD44hi CD24low in ESA+ cells (MIA-PaCa-2 [10]): 43.2%
% CSt-like-C (MIA-PaCa-2 [10]): 17.0%
% ESA+ (MIA-PaCa-2 [10]): 39.5%
increase of ESA+ CD44hi CD24low and CD133+ populations in GEMRes population vs entire population (MIA-PaCa-2 [10]; Mia-PaCa-2): 3-5 fold
increase of ESA+ CD44hi CD24low and CD133+ populations in GEMRes population vs entire population (PANC-1 [11]; PANC-1): 3-5 fold
% CD44hi CD24- in ESA+ cells (PANC-1 [11]; PANC-1 after culture with drug): 8.6%
% CD44hi CD24hi in ESA+ cells (PANC-1 [11]; PANC-1 after culture with drug): 9.7%
% CD44hi CD24low in ESA+ cells (PANC-1 [11]; PANC-1 after culture with drug): 50.0%
% CSt-like-C (PANC-1 [11]; PANC-1 after culture with drug): 38.3%
% ESA+ (PANC-1 [11]; PANC-1 after culture with drug): 76.7%
change of CSt-like-C population (MCF7 [12]; MCF7): increased
increase of ESA+ CD44hi CD24low and CD133+ populations in GEMRes population vs entire population (MCF7 [12]; MCF7): 3-5 fold
% CD44hi CD24- in ESA+ cells (MCF7 [12]; MCF7 after culture with drug): 0.3%
% CD44hi CD24hi in ESA+ cells (MCF7 [12]; MCF7 after culture with drug): 10.2%
% CD44hi CD24low in ESA+ cells (MCF7 [12]; MCF7 after culture with drug): 6.3%
% CSt-like-C (MCF7 [12]; MCF7 after culture with drug): 6.3%
% ESA+ (MCF7 [12]; MCF7 after culture with drug): 95.4%
cells harvested (MCF7 [12]): 0.6 ×10^6
% CD44hi CD24- in ESA+ cells (AsPC-1 [13]): 19.3%
% CD44hi CD24hi in ESA+ cells (AsPC-1 [13]): 20.1%
% CD44hi CD24low in ESA+ cells (AsPC-1 [13]): 58.2%
% CSt-like-C (AsPC-1 [13]): 57.6%
% ESA+ (AsPC-1 [13]): 98.9%

Compound: CC(C)C[C@@H](C=O)NC(=O)[C@H](CC(C)C)NC(=O)[C@H](CC(C)C)NC(=O)OCc1ccccc1 [MG132] (Cbz-Leu-Leu-Leu-aldehyde)
low Numb levels after treatment (breast tumors): restored to high levels

IC50 (SKOV-3 [1]; Homo sapiens, SK-OV-3, 72 h): 4.7 nM
IC50 (AsPC-1 [2]; Homo sapiens, ASPC1, 72 h): 18.3 nM
IC50 in AsPC-1 relative to PANC-1 (AsPC-1 [2]; most resistant vs most sensitive line): more than 4 fold
IC50 (MIA-PaCa-2 [3]): 5.3 nM
IC50 (PANC-1 [4]): 3.9 nM
IC50 (MCF7 [5]): 4.5 nM
number of cells expressing MICA and MICB in drug-resistant cells (MIA-PaCa-2 [14]): did not increase
Compound: CC(=O)O[C@H]1C(=O)[C@@]2(C)[C@H]([C@H](OC(=O)c3ccccc3)[C@]3(O)C[C@H](OC(=O)[C@H](O)[C@@H](NC(=O)c4ccccc4)c4ccccc4)C(C)=C1C3(C)C)[C@]1(OC(C)=O)CO[C@@H]1C[C@@H]2O [PTX, paclitaxel]
number of CD44+ CD24lo cells (Ovarian and PC): increased
cells harvested (MIA-PaCa-2 [8]): 3.3 ×10^6 cells
% CD44hi CD24- in ESA+ cells (MIA-PaCa-2 [10]): 1.0%
% CD44hi CD24hi in ESA+ cells (MIA-PaCa-2 [10]): 21.2%
% CD44hi CD24low in ESA+ cells (MIA-PaCa-2 [10]): 23.1%
% CSt-like-C (MIA-PaCa-2 [10]): 7.7%
% ESA+ (MIA-PaCa-2 [10]): 33.2%
change of CSt-like-C population (MCF7 [12]; MCF7): increased
cells harvested (MCF7 [12]): 0.4 ×10^6

Compound: C[S+]([O-])c1ccc(-c2nc(-c3ccc(F)cc3)c(-c3ccncc3)[nH]2)cc1 (stereo not shown) [SB20380]
effect of treatment of SKOV3.A2 cells on IFN-g production by the indicator cell line (SKOV3.A2 cells): weaker inhibitory effect

Compound: CN[C@@H]1C[C@H]2O[C@@](C)([C@@H]1OC)n1c3ccccc3c3c4c(c5c6ccccc6n2c5c31)C(=O)NC4 [staurosporine]
effect of treatment of SKOV3.A2 cells on IFN-g production by the indicator cell line (SKOV3.A2 cells): abolished
